We go through 8 compounds from ChEMBL document CHEMBL1201862, “PubChem BioAssay data set” (2004).

Activity calls are given as the source filed them.

The subject of one assay is HeLa. Description: ATP-based viability loss in HeLa cells – cell-based, CellTiter-Glo luminescence, cherry-pick samples, cytotoxicity control for MITF activator project, dose response (AID 540259). To be noted: Homo sapiens. It is filed as functional. On the technique in general: Cellular ATP, detected with luciferase, serves as a proxy for viable cell number.
Assay [1] can be described thus: Trypanosoma cruzi growth suppression in host cells – NIH3T3 host cells, beta-gal luminescence, confirmation (AID 2044).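 Note: intracellular parasites grown in NIH/3T3 mouse fibroblasts as host cells; luminescent beta-galactosidase reporter signal from transgenic T. cruzi replicating inside host cells; inhibitors lower the luminescence signal.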 It is filed as functional, cell-based.
Assay [2] addresses T1, Serine/threonine-protein phosphatase (Candida dubliniensis (strain CD36 / CBS 7987 / NCPF 3949 / NRRLY-17841) (Yeast), UniProt B9W6M3).
T1 sequence (B9W6M3 whole entry): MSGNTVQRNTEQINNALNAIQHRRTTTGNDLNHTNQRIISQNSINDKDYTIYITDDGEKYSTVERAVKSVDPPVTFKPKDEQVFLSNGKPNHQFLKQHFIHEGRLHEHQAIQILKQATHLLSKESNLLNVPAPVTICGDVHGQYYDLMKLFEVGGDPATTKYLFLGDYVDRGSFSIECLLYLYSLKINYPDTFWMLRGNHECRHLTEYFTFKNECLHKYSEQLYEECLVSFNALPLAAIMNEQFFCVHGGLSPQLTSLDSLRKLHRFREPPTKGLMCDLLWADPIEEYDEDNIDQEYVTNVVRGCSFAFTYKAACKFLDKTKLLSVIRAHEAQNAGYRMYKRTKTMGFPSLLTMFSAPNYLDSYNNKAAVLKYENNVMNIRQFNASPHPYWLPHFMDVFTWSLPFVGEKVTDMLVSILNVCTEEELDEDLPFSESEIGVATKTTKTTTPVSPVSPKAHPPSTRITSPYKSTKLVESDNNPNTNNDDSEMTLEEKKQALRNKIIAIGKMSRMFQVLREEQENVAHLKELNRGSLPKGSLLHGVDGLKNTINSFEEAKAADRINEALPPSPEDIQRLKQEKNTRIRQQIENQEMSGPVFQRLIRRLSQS
Description: blockers of CaCl2-induced CDRE-lacZ signaling – S. cerevisiae, luminescence, secondary, dose response (AID 2388).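 Note: yeast reporter cells carrying a calcineurin-responsive lacZ construct stimulated with calcium chloride; luminescent beta-galactosidase reporter signal in whole cells rather than isolated phosphatase activity; potency for inhibition where a drop in reporter signal means calcineurin blockade.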 It is filed as functional, cell-based.

The nature of assay [3]: NIH3T3 cell viability loss – ATP luminescence, mouse fibroblasts, counter-screen, dose response (AID 2010).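 Note: cells exposed to compound for about 90 hours before reading.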 It is filed as functional, cell-based. For orientation: The purpose of a counterscreen is to sort out artefacts and off-target activity.
Assay [4] has as its target Heat shock protein HSP 90-alpha (Homo sapiens, UniProt P07900). It is filed as functional, organism-based.
The nature of assay [5]: cells. It is filed as functional, cell-based.
Assay [6] concerns the target ATP-dependent molecular chaperone HSP82 (Candida albicans (strain WO-1) (Yeast), UniProt C4YTQ8). Description: steroid-induced GRE reporter decrease in yeast – S. cerevisiae, luminescence, Hsp90 inhibitor project, dose response (AID 2400).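 Note: beta-galactosidase luminescence from glucocorticoid response element reporter as proxy for Hsp90 function; inhibitor potency where signal loss means Hsp90 inhibition.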 It is filed as functional, cell-based.
Assay [7] in a line: cells. It is filed as functional, cell-based. The source holds these as a separate data set.
Assay [8] is described as follows: NIH-3T3 fibroblast cytotoxicity, dose response, cytotoxicity control, cell-based, fluorescence, Alamar Blue, secondary assay (AID 2327).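 Note: NIH-3T3 mouse fibroblasts cultured with fluconazole at 8 µg/mL.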 It is filed as functional.
A short description of assay [9]: fluconazole-exposed Candida albicans growth modulators – fluorescence, retest, confirmation (AID 2467). It is filed as functional, cell-based.
Assay [10] can be described thus: HEK-293T viability loss after treatment – luminescence, T-cell screen hits, cytotoxicity control for TCR NF-kB inhibitor project, dose response (AID 489026).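 Note: cells exposed to compound about 14 hours before the viability readout.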 It is filed as functional, cell-based.
Assay [11] addresses T2, Runt-related transcription factor 1/Core-binding factor subunit beta (Homo sapiens, UniProt Q01196+Q13951). Put plainly: Runt domain/CBFb-SMMHC interaction disruptors – biochemical, TR-FRET (AID 1438). It is filed as protein assay. (In general: In TR-FRET formats the signal depends on donor and acceptor labels being close together.)
In assay [12] the target is T2, Runt-related transcription factor 1/Core-binding factor subunit beta. Description: disruptors of Runt domain/CBFb-SMMHC interaction – biochemical, FRET, Cerulean-Runt, Venus-CBFb-SMMHC, uHTS, […] (AID 1434). It is filed as protein assay.
Assay [13] deals with T3, Polyadenylate-binding protein 1 (Homo sapiens, UniProt P11940). Description: MLLE domain peptide-binding blockers, IC50 – biochemical, fluorescence polarization, FITC-PAM2 peptide, dose response (AID 602259). It is filed as functional. The settings on record: read-out: IC50_Mean.
T3 sequence (P11940 whole entry, the tested form may be a part): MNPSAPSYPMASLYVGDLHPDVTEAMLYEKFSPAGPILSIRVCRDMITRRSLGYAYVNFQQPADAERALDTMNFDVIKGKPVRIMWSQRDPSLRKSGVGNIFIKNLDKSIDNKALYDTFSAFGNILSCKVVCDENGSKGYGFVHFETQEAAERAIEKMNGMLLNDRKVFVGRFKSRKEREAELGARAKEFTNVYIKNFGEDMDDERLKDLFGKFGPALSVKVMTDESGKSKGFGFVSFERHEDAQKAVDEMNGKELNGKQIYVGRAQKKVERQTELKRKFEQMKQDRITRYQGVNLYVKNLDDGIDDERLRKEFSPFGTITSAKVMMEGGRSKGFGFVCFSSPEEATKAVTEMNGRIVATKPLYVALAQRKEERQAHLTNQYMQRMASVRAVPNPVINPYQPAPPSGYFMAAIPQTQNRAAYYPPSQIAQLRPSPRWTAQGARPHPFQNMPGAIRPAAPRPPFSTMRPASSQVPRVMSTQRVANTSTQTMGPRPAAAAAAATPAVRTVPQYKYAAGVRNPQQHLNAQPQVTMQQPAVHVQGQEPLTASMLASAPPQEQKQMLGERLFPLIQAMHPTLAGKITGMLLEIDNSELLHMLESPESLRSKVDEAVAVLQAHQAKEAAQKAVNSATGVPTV
Assay [14] has as its target T4, Rac GTPase-activating protein 1 (Homo sapiens, UniProt Q9H0H5).
T4 sequence (Q9H0H5 whole entry): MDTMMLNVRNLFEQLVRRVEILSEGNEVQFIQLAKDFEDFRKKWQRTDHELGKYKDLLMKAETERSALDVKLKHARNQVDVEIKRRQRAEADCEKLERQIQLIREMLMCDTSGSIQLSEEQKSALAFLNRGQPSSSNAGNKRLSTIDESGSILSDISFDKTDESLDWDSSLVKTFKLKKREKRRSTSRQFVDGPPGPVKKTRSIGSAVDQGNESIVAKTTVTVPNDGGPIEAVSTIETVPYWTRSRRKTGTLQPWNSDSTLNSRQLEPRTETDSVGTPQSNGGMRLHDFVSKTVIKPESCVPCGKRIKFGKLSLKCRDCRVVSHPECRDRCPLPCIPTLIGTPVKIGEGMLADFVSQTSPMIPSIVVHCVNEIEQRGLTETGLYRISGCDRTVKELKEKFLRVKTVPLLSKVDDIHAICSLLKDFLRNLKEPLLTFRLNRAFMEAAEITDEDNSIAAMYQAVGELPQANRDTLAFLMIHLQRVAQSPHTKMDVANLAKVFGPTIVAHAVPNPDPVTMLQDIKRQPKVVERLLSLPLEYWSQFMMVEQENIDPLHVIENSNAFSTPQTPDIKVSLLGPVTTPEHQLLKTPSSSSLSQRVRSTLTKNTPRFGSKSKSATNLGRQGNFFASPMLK
Put plainly: blockers of MgcRacGAP-driven Rac1 GTP hydrolysis – biochemical, ADP Hunter fluorescence, primary and confirmatory, confirmation (AID 624330). It is filed as functional.

For assay [15], the target named is T3, Polyadenylate-binding protein 1. Put plainly: MLLE binding blockers, Cy5 peptide tracer – biochemical, fluorescence polarization, Cy5-PAM2 peptide, secondary, miRNA deadenylation inhibitor project, dose response (AID 602260). To be noted: read-out: IC50_Mean. It is filed as functional.
The target of the next assay is Large T antigen (Simian virus 40, UniProt P03070). It is filed as functional, Betapolyomavirus macacae.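 Note: Confirmatory-stage PubChem screen for compounds that inhibit SV40 T antigen.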
Sequence of Large T antigen (P03070 whole entry): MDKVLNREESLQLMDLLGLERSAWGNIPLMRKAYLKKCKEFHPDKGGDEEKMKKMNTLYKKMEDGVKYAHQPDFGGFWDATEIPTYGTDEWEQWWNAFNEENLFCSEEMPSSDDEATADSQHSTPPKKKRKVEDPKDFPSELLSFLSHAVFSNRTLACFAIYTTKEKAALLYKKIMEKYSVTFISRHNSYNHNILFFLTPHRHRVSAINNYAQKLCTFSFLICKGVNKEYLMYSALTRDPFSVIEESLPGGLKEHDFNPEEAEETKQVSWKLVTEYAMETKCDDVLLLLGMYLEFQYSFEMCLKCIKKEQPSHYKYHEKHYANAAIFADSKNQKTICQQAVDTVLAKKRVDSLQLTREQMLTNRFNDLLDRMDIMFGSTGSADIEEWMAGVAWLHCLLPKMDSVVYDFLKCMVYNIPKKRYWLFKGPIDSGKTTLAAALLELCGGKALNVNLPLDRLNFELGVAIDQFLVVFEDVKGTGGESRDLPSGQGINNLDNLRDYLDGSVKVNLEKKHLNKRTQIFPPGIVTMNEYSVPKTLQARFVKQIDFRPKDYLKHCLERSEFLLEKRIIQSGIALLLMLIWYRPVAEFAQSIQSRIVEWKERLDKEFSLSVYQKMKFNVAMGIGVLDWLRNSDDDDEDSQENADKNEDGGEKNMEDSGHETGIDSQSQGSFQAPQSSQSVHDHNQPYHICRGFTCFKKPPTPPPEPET
Assay [16] deals with Dual specificity tyrosine-phosphorylation-regulated kinase 1A (Rattus norvegicus, UniProt Q63470). It is filed as biochemical, Homo sapiens.
Assay [17] concerns the target T5, Endoribonuclease toxin MazF (Escherichia coli K-12, UniProt P0AE70).
T5 sequence (P0AE70 whole entry): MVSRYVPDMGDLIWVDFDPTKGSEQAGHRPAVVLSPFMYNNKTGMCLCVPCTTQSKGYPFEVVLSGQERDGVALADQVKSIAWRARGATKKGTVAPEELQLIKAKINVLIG
Description: substrate-only fluorescence increase artefacts – biochemical, single-stranded RNase substrate, counter-screen for MazEF activator project, dose response (AID 588502). It is filed as functional.

Assay [18] deals with T5, Endoribonuclease toxin MazF. Put plainly: activation of MazEF endoribonuclease cleavage – biochemical, fluorescence, single-stranded RNA substrate, uHTS hits, dose response (AID 588481). It is filed as functional.
Assay [19] deals with Streptococcus sp. 'group A'. Description: Streptococcus pyogenes SK(-)GAS viability under kanamycin – luminescence, BacTiterGlo, confirmation, counter-screen for streptokinase expression inhibitor project, dose response (AID 1900). It is filed as functional, organism-based.
The subject of a further assay is Streptococcus. Description: GAS UMAA2166 growth inhibition – luminescence, BacTiterGlo, counter-screen for streptokinase expression inhibitor project, dose response (AID 1915).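 Note: potency for reduction of bacterial viability or growth.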 It is filed as functional, organism-based.
The target in assay [20] is Voltage-dependent T-type calcium channel subunit alpha-1H (Homo sapiens, UniProt O95180). It is filed as functional.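 Note: channel activity triggered by adding a high calcium stimulation buffer.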
Sequence of Voltage-dependent T-type calcium channel subunit alpha-1H (O95180 whole entry): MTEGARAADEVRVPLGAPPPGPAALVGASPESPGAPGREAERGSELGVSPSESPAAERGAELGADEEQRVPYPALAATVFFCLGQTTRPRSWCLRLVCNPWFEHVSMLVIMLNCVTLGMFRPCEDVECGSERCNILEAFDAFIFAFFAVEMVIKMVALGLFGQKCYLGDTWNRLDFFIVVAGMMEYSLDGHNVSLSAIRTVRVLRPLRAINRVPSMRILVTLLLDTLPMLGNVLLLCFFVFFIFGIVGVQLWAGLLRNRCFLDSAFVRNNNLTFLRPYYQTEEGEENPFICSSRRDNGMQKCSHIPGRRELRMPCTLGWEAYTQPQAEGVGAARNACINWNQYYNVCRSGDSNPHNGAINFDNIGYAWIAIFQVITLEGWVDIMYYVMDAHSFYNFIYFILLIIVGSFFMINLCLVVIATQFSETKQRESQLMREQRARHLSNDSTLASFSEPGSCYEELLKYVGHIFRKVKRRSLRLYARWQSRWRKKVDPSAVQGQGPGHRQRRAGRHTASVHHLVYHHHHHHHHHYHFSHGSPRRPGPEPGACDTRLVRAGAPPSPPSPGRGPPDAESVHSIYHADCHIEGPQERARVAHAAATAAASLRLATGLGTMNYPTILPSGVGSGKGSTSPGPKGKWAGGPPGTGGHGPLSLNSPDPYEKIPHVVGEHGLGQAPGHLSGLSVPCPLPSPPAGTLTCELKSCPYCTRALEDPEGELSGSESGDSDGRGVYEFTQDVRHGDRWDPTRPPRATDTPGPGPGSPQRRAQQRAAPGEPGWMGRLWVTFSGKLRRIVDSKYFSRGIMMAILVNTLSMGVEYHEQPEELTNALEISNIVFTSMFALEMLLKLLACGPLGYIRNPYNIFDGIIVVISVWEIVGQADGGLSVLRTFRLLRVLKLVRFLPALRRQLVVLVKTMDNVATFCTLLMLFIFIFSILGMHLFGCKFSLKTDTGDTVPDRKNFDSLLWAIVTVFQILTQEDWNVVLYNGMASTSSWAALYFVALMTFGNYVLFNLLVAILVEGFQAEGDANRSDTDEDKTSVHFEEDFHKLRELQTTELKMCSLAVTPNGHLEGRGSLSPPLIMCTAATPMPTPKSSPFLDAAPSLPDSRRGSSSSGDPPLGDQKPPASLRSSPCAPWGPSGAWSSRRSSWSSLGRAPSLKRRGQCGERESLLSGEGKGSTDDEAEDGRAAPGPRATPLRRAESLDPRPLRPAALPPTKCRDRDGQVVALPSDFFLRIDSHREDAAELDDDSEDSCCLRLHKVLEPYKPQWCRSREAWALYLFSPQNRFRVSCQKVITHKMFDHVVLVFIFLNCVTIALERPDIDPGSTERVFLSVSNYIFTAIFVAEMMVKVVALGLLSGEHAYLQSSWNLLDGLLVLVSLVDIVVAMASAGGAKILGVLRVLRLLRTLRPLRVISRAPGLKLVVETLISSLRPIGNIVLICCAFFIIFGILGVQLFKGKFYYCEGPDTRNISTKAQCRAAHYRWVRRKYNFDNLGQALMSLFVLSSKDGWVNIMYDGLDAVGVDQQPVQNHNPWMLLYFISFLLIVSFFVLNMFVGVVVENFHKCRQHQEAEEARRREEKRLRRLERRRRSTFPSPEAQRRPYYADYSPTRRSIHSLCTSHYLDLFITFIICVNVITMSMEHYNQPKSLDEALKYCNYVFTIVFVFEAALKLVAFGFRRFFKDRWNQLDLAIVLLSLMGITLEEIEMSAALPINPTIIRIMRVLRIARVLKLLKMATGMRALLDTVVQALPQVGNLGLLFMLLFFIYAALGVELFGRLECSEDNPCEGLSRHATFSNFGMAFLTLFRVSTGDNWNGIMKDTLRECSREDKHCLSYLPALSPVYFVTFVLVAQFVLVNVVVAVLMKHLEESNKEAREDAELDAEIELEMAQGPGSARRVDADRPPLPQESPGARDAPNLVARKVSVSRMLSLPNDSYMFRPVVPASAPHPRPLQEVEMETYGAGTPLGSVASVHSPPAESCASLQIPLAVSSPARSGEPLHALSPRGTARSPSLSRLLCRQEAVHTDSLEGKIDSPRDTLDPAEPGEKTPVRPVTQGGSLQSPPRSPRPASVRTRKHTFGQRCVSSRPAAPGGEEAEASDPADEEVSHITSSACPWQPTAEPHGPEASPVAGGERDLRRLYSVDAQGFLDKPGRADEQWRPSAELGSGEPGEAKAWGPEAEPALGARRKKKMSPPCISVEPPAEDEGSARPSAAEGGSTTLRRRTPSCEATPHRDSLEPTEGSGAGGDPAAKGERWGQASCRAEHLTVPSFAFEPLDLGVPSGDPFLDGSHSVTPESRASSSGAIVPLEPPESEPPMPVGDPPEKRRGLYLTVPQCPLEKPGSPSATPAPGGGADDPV

By AC50 is commonly meant the midpoint of the concentration-response curve, whichever way the signal moves. A word on the EC50: it is the concentration that produces a half-maximal response.

T2 sequence (Q01196 whole entry, the tested form may be a part): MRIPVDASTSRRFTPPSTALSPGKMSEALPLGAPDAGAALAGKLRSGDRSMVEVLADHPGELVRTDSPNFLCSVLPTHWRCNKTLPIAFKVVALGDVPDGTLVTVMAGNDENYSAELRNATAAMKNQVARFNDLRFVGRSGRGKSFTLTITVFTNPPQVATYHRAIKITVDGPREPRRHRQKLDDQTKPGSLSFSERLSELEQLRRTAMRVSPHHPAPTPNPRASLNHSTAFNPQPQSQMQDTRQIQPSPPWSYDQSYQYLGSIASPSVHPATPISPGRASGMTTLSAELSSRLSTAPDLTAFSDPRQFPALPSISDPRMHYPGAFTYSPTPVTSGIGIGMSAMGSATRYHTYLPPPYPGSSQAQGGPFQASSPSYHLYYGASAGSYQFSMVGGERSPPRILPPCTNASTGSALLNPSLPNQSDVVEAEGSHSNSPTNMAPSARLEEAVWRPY
T2 sequence (Q13951 whole entry, the tested form may be a part): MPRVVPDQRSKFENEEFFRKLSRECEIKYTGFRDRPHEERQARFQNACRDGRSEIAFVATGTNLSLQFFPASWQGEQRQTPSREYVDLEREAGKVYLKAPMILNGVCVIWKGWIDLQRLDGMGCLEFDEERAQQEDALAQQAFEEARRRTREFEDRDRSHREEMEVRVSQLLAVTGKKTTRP
Sequence of ATP-dependent molecular chaperone HSP82 (C4YTQ8 whole entry): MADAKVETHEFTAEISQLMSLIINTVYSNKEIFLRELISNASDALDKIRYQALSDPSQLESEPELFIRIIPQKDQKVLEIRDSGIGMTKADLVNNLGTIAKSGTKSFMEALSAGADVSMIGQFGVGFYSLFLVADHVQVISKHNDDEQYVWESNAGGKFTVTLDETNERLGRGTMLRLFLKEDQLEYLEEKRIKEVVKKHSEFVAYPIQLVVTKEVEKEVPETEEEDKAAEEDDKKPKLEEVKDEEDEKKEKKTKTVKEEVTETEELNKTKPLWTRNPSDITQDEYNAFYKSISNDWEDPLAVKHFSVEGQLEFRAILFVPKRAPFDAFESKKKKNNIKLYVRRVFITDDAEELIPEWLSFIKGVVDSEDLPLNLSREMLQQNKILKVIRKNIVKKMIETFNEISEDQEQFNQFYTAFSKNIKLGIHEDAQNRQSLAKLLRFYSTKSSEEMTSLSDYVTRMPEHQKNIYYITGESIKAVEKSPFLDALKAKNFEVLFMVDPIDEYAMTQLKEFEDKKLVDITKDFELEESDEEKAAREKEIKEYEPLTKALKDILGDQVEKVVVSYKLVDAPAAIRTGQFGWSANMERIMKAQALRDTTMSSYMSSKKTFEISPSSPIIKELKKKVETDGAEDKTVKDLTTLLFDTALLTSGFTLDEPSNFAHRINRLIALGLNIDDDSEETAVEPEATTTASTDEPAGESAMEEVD

For `Cc1ccc(NC(=O)C2C3/C=C\CCCCC32)cc1` (stereo unspecified), in the assay on HeLa, the AC50 is 197 µM (active).

For `O=C(N/N=C/c1c(O)ccc2ccccc12)c1cccc(C(F)(F)F)c1`, the EC50 is 0.686 µM (active) in assay [1]; > 180 µM (inactive) in assay [2]; 6.11 µM (active) in [3]; 8.23 µM (active) in “cells [5]”; 9.34 µM (active) in [6]; > 350 µM (not active) in “cells [7]”. Besides, the EC50 in assay [8] was 26.9 µM (active); in assay [9], 0.452 µM (active). Besides, the AC50 in assay [4] was 2.24 µM (active). In addition, the IC50 in assay [10] is > 80 µM (inactive).

In the case of `N#Cc1c(-c2ccncc2)c2c([nH]c1=O)-c1ccccc1OC2`, the IC50 in [11] was > 100 µM (inactive); in [12] it was 1.04 µM (active).

In the case of `COc1cccc(Nc2ccc(N3CCCCC3)cc2)c1OC`, the IC50 in assay [13] was 21.4 µM (inactive); in assay [14], 9.65 µM (active); in [15], > 66 µM (inactive). Also, the AC50 in the assay on HeLa was 252 µM (active).

As to `N#Cc1ccc(C(=O)NC2CCCCCCC2)cc1`, in the assay with HeLa, the AC50 is 55 µM (active).

Regarding `O=C1NC(=O)/C(=C/c2ccc(O)cc2)S1`, the IC50 on Large T antigen is 10.1 µM (active). Also, the AC50 in [16] is 0.414 µM (active).

With `COc1ccc2nc(N3CCCC3)c(C#N)cc2c1`, the EC50 in assay [17] and in assay [18] was > 99 µM (inactive) in each case. The IC50 is > 100 µM (inactive) in assay [11] and 2.04 µM (active) in assay [12].

As to `COc1ccc(-c2nnc(NC(=O)c3cc(Cl)ccc3Cl)o2)cc1`, the EC50 is 2.64 µM (active) in assay [19]; > 180 µM (inactive) in [2]; 18 µM (active) in [6]; > 150 µM (inactive) in assay [8]; 0.815 µM (active) in [9]; 7.89 µM (active) with Streptococcus. Besides, the EC50 in [20] was 10.8 µM (active).
